For one test, the system named is Trialeurode vaporariorum. Also noted: method as in PMID 35244166. The conditions noted are these: ref [47]; cited from earlier work.
Test [1] has as its target T1, BtOBP2 (Bemisia tabaci, UniProt A0A097BTY7).
T1 sequence (A0A097BTY7 23-247): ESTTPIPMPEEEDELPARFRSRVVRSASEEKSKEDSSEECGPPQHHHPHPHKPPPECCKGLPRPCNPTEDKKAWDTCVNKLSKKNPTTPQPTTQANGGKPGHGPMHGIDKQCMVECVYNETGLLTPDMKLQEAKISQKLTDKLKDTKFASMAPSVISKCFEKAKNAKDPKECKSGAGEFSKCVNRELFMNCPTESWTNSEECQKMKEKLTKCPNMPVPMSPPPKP
In words: Fluorescence binding of the probe 1-NPN to recombinant BtOBP2. The conditions noted are these: recombinant BtOBP2 2 µM, Scatchard analysis; read-out: binding constant (Kd) of 1-NPN to BtOBP2. From the text: The specific primers for BtOBP2 were designed using Primer 5 software to amplify the coding sequence according to the Phanta Max Super‐Fidelity DNA Polymerase protocol. Target DNA fragments were purified and ligated into the pEASY‐Blunt cloning vector, and positive colonies were identified by PCR and sequenced. The cloned plasmid was ligated into the pET28a vector (Invitrogen, Waltham USA) following digestion with BamHI and SalI. The resulting construct was transformed into Rosetta (DE3) Escherichia coli competent cells. […] The target protein was verified by 10% SDS‐PAGE, and its concentration was determined with a BCA protein assay kit. […] The target protein was subjected to Coomassie blue staining and western blot validation through 10% SDS‐PAGE using anti His‐Tag antibody, and its concentration was determined using a BCA protein assay kit. […]
The binding affinity of BtOBP2 to the fluorescent probe N‐phenyl‐1‐naphthyl‐amine (1‐NPN1) was determined using a FL7000 fluorescence spectrophotometer (Hitachi, Tokyo Japan). […] The optimal excitation and emission wavelengths of the recombinant protein BtOBP2 were determined, and the 1‐NPN/BtOBP2 mixture was excited at 220 nm with emission spectra recorded from 300 to 500 nm. The binding constants (Kd) of BtOBP2 to 1‐NPN were calculated by Scatchard analysis using Prism 5 software. […]

The next test has as its system TYLCV. Also noted: method as in PMID 36086899. The note with it: ref [48]; cited from earlier work.
The next test has as its system whiteflies. Further details: method as in PMID 31842757. The note with it: ref [18]; cited from earlier work.
Test [2] deals with Bemisia tabaci whiteflies. The experiment in a line: Whitefly preference for neophytadiene after RNA interference (dsGFP, dsBtOBP2, dsOBP3). The conditions noted are these: for preference (whiteflies choosing Neophytadiene): Neophytadiene versus CK, single replicates; for preference (whiteflies choosing Neophytadiene) / preference (whiteflies choosing Neophytadiene), mean: Fig 7D; for preference (whiteflies choosing Neophytadiene), mean: unlabelled last row = mean of the 9 replicates.

The subject of test [3] is Bemisia tabaci whiteflies. In words: Y-tube olfactory choice assay, volatile standard versus solvent control. The conditions noted are these: for Whitefly preference for plant volatiles versus control (solvent only): number of whiteflies in the volatile arm: Fig 1F raw data, individual replicates (n = 9), 100 whiteflies released, counted for 20 min; for impact of volatile on whitefly preference: Y-tube, volatile standard versus solvent control, n = 9, result in words. It is filed as in vivo. As for the experimental part:
Y‐tube preference assays were conducted as per Shi et al.^[ [51] ^] with an air flow of 100 mL min^−1. A volatile standard (Sigma Aldrich, USA) and control (solvent) were placed in glass containers at either end of the Y‐tube and 100 whiteflies were released at the Y‐tube base. The number of whiteflies moving more than 5 cm into the Y‐tube arm and remaining there for at least 15 s was counted for 20 min. There were nine replicates per volatile for each of the eight volatile compounds.

The subject of test [4] is Bemisia tabaci whiteflies. In words: Whole-plant preference test, OELhca4 tomato plants sprayed with neophytadiene or water. It is filed as in vivo. As for the experimental part:
Tests were conducted as per Shi et al.^[ [49] ^] with slight modifications. ToCV‐infected or control (mock‐inoculated) tomato plants were used for preference tests in screened cages. A second set of preference tests was also conducted using OELhca4 (Lhca4 overexpressed) tomato plants sprayed either with neophytadiene (3 µg g^−1 in water) or water only (control). Each cage contained two plants placed 40 cm apart. Under dim light, about 100 whiteflies that had been starved for 2 h were released above the center of the two plants and the whiteflies on each plant counted after 48 h. Each of the two preference tests (ToCV‐infected versus uninfected plants; OELhca4 plants sprayed with either neophytadiene or water) was replicated nine times.

Test [5] deals with T1, BtOBP2. In words: Fluorescence competitive binding assay (displacement of 1-NPN from BtOBP2). The note with it: mean ± SEM; for IC50: BtOBP2 2 µM, ligand 2 to 20 µM, read-out: IC50, ligand concentration displacing 50% of the fluorescence intensity of the BtOBP2/1-NPN complex. From the text:
The specific primers for BtOBP2 were designed using Primer 5 software to amplify the coding sequence according to the Phanta Max Super‐Fidelity DNA Polymerase protocol. Target DNA fragments were purified and ligated into the pEASY‐Blunt cloning vector, and positive colonies were identified by PCR and sequenced. The cloned plasmid was ligated into the pET28a vector (Invitrogen, Waltham USA) following digestion with BamHI and SalI. The resulting construct was transformed into Rosetta (DE3) Escherichia coli competent cells. When the OD600 of the recombinant BtOBP2 reached 0.6 to 0.8, induction was initiated by adding isopropyl‐β‐D‐1‐thiogalactopyranoside (IPTG) (1 mM) at 16 °C for 16 h, followed by purification using the Ni‐NTA purification system.^[ [59] ^] The target protein was verified by 10% SDS‐PAGE, and its concentration was determined with a BCA protein assay kit. The recombinant purified protein was stored at −80 °C until use. The target protein was subjected to Coomassie blue staining and western blot validation through 10% SDS‐PAGE using anti His‐Tag antibody, and its concentration was determined using a BCA protein assay kit. The purified recombinant protein was stored at −80 °C.
The binding affinity of BtOBP2 to the fluorescent probe N‐phenyl‐1‐naphthyl‐amine (1‐NPN1) was determined using a FL7000 fluorescence spectrophotometer (Hitachi, Tokyo Japan). Ligands and 1‐NPN were dissolved in HPLC‐grade methanol to a concentration of 1 mM, and then titrated with BtOBP2 (2 µM) to final concentrations ranging from 2 to 20 µM.^[ [60] ^] The optimal excitation and emission wavelengths of the recombinant protein BtOBP2 were determined, and the 1‐NPN/BtOBP2 mixture was excited at 220 nm with emission spectra recorded from 300 to 500 nm. The binding constants (Kd) of BtOBP2 to 1‐NPN were calculated by Scatchard analysis using Prism 5 software. The IC50 represents the concentration at which 50% of the probe was displaced by the ligand. The Ki values were calculated according to the following equation: Ki = [IC50]/(1 + [1‐NPN]/K1‐NPN), where [1‐NPN] is the free concentration of 1‐NPN, and K1‐NPN is the Kd of the 1‐NPN/BtOBP2 complex.^[ [61] ^]

The test system of another test is BtOBP1-8 genes. The experiment in a line: Transcriptional response of BtOBP1-8 to neophytadiene (qRT-PCR). It is filed as in vivo, Bemisia tabaci. The method, then: RNA was extracted using trizol reagent (Invitrogen, Waltham USA) and dissolved in double‐deionized water; cDNA was synthesized from total RNA (1 µg) using HiScript 1st Strand cDNA Synthesis kit (Vazyme, Nanjing China). Real‐time qPCR was conducted using the MonAmp SYBR Green qPCR Mix (Thermofisher, Waltham USA). Actin and UBI were selected as the housekeeping genes (Table S1, Supporting Information). Each experiment was repeated at least three times and relative gene expression levels calculated for analysis using the 2^−∆∆Ct method.
To investigate the expression profiles of BtOBP1‐8 genes in B. tabaci under neophytadiene treatment, the following experiment was performed. Tomato plants with an identical growth cycle were selected as the treatment group (sprayed with 3 µg g^−1 neophytadiene) and the control group (treated with water only). The treated plants were then placed in a 10 L hermetic container. Once the volatilization reached equilibrium, 500 pairs of adults were introduced into the closed container and fumigated under airtight conditions. Subsequently, the whiteflies were sampled at distinct time points (0, 24, 48, 72, 96 h) respectively for the determination of expression levels.

The structures appear in SMILES notation. Where “and” joins values, the source holds several entries; their conditions need not be identical. Identical values can stand only once.

On to `CC12CCC(CC1)C(C)(C)O2` [1, 8‐cineole], for which, in the test with Trialeurode vaporariorum, the “effect on settling of whitefly on an otherwise-preferred tomato cultivar” value is reported as “repelled”.

Regarding `c1ccc(Nc2cccc3ccccc23)cc1` [1‐NPN, N‐Phenyl‐1‐naphthylamine], on BtOBP2 [1], the Kd was determined as 2.94 ± 0.08 µM.

For `CC/C=C\CCO` [(Z)‐3‐hexenol], the “effect on tomato defense against infection by whitefly-transmitted TYLCV” value in the test with TYLCV is given as “improves tomato defense”.

Regarding `C=CC(=C)CCCC(C)CCCC(C)CCCC(C)C` (stereo not drawn) [Neophytadiene], the attraction of whiteflies result in the test on whiteflies is given as “highly attractive to whiteflies”. The “preference for neophytadiene of BtOBP2-silenced (dsOBP2) whiteflies” value in test [2] (after RNA interference of BtOBP2, n = 9) is “no preference”. Also, the “preference for neophytadiene of BtOBP3-silenced (dsOBP3) whiteflies” value in test [2] (after RNA interference of BtOBP3, n = 9) is recorded as “still exhibited preference”. In addition, in test [2] (dsGFP-treated whiteflies), the “preference (whiteflies choosing Neophytadiene)” value was 95 and 86 and 80 and 93 and 85 and 88 and 79 and 90; the “preference (whiteflies choosing Neophytadiene), mean” value was 87.6667. In test [2] (dsOBP2-treated whiteflies), the “preference (whiteflies choosing Neophytadiene)” value was 36 and 41 and 48 and 46 and 42 and 58 and 59 and 45; the “preference (whiteflies choosing Neophytadiene), mean” value was found to be 46.3333. Also, in test [3], the “Whitefly preference for plant volatiles versus control (solvent only): number of whiteflies in the volatile arm” value was 86 and 89 and 65 and 80 and 52 and 100 and 48; the “impact of volatile on whitefly preference” value is recorded as “attracted B. tabaci”. Also, the “preference (whiteflies on plant)” value in test [4] (OELhca4+Neophytadiene versus OELhca4, Fig 5J, single replicates) is 80 and 70 and 78 and 72 and 60 and 66 and 76 and 73. Also, the “Whitefly preference for neophytadiene-sprayed versus water-sprayed OELhca4 plants” value in test [4] (neophytadiene 3 µg g^−1 in water, whiteflies counted after 48 h, n = 9) was “attracted more whiteflies”. The IC50 at BtOBP2 [5] was found to be 7.95 ± 0.45 µM. In addition, in the test on BtOBP1-8 genes (24h, Fig 7A), the OBP1 relative expression is 1.5096 and 1.0333 and 1.7792; the OBP2 relative expression was 2.314 and 1.938 and 1.255; the OBP3 relative expression is 2.295 and 2.274 and 2.135; the OBP4 relative expression is 1.915 and 1.067 and 1.378. In addition, in the test on BtOBP1-8 genes (24h, Fig 7A), the OBP5 relative expression was 0.9141 and 1.109 and 1.357; the OBP7 relative expression is 0.4368 and 0.5508 and 0.2972. In addition, in the test on BtOBP1-8 genes (48h, Fig 7A), the OBP1 relative expression is 0.9445 and 0.6245 and 1.003; the OBP2 relative expression is 3.877 and 2.855 and 4.158; the OBP3 relative expression is 2.98 and 1.807 and 1.705; the OBP4 relative expression was 1.105 and 0.8073 and 0.7508. The OBP7 relative expression with BtOBP1-8 genes (48h, Fig 7A) was 0.7647 and 0.5685 and 0.6675. For the same molecule, in the test on BtOBP1-8 genes (72h, Fig 7A), the OBP4 relative expression was 0.7926 and 1.238 and 0.8444; the OBP6 relative expression is 0.6207 and 0.9359 and 1.164. Also, in the test with BtOBP1-8 genes (96h, Fig 7A), the OBP3 relative expression was 2.791 and 2.514 and 4.498; the OBP4 relative expression was 1.221 and 0.8392 and 1.362; the OBP6 relative expression was 0.4452 and 0.8016 and 0.4814; the OBP7 relative expression was 0.7369 and 0.9206 and 0.9224. Also, in the test with BtOBP1-8 genes (96h, Fig 7A), the OBP8 relative expression was 0.9529 and 0.9384 and 0.8486. In addition, in the test with BtOBP1-8 genes (continuous release for 96 h, measured every 24 h), the “relative gene expression of BtOBP1-8 following neophytadiene exposure” value was “Only two genes, BtOBP2 and BtOBP3, increased their expression over time”.

`C=C(C)[C@H]1CC=C(C)CC1` [limonene]: the “effect on settling of whitefly on an otherwise-preferred tomato cultivar” value in the test with Trialeurode vaporariorum was “repelled”.

Regarding `CC1=CCC2CC1C2(C)C` (stereo not drawn) [α‐pinene], in test [3], the “Whitefly preference for plant volatiles versus control (solvent only): number of whiteflies in the volatile arm” value was 23 and 24 and 30 and 26 and 17 and 40 and 21 and 6 and 43; the “impact of volatile on whitefly preference” value was “significantly repelled whiteflies”. The IC50 at BtOBP2 [5] stood at 14.6 ± 0.57 µM. The Ki at BtOBP2 [5] (Ki = [IC50]/(1 + [1-NPN]/K1-NPN), read-out: Ki, dissociation constant) was determined as 10.9 ± 0.43 µM.

A word on the Kd: it is the concentration at which binding is half-saturated. Usually Ki stands for the dissociation constant of the complex between target and ligand, obtained from inhibition or displacement.

Values taken from article PMC12165043, “Neophytadiene, a Plant Specialized Metabolite, Mediates the Virus‐Vector‐Plant Tripartite Interactions” (Advanced Science, 2025).
